Experimental data published in the supplement of paper PMC10627819.

What was measured:
B. subtilis 168 [1] = experiment: fitness (endpoint OD595 vs no drug) (fraction); higher = more growth
Summary of the method: (§1)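 Growth medium was TSB, LB Lennox or CY, and plates were kept at 37 °C. Inoculation was at OD595 0.01 in 384-well plates, at 30 µl per well or 55 µl for S. pneumoniae. OD595 was monitored every 30 min for 14 h and background-subtracted using the first reading. Fitness is the optical density on entering stationary phase divided by the robust mean of no-drug controls, with values capped at 1.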

S. pneumoniae D39V [2] = experiment: as above
Summary of the method: as §1

S. aureus DSM 20231 [3] = experiment: as above
Summary of the method: as §1

S. aureus Newman [4] = experiment: as above
Summary of the method: as §1

B. subtilis 168 [5] = experiment: Bliss interaction score (quartile over a dose matrix) (fitness difference); higher = more antagonism (negative = synergy)
Summary of the method: (§2)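 The Bliss score subtracts expected fitness, the product of the single-drug fitness values, from observed fitness. Fitness is plate-normalised OD595 at entry into stationary phase, relative to the robust no-drug mean and capped at 1, with single-drug fitness inferred from combinations. Summaries are quartiles over technical, biological and donor/recipient replicates.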

S. pneumoniae D39V [6] = experiment: as above
Summary of the method: as §2

S. aureus DSM 20231 [7] = experiment: as above
Summary of the method: as §2

S. aureus Newman [8] = experiment: as above
Summary of the method: as §2
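For Bliss interaction score (quartile over a dose matrix) in this document: first quartile when negative (synergy) and third quartile when positive (antagonism).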

CO/N=C(\C(=O)N[C@@H]1C(=O)N2C(C(=O)O)=C(COC(C)=O)CS[C@H]12)c1csc(N)n1 [Cefotaxime] + Cc1onc(-c2ccccc2)c1C(=O)N[C@@H]1C(=O)N2[C@@H]1SC(C)(C)[C@@H]2C(=O)O [Oxacillin]
one replicate
Conditions | fitness
B. subtilis 168 [1], first compound 0.00775 µg/mL, partner 0.0078 µg/mL | 0.82
B. subtilis 168 [1], first compound 0.00775 µg/mL, partner 0.0155 µg/mL | 0.789
B. subtilis 168 [1], first compound 0.00775 µg/mL, partner 0.031 µg/mL | 0.741
B. subtilis 168 [1], first compound 0.0155 µg/mL, partner 0.0078 µg/mL | 0.644
B. subtilis 168 [1], first compound 0.0155 µg/mL, partner 0.0155 µg/mL | 0.664
B. subtilis 168 [1], first compound 0.0155 µg/mL, partner 0.031 µg/mL | 0.548
B. subtilis 168 [1], first compound 0.031 µg/mL, partner 0.0078 µg/mL | 0.482
B. subtilis 168 [1], first compound 0.031 µg/mL, partner 0.0155 µg/mL | 0.537
B. subtilis 168 [1], first compound 0.031 µg/mL, partner 0.031 µg/mL | 0.395
B. subtilis 168 [1], first compound 0.0625 µg/mL, partner 0.075 µg/mL | 0.0512
B. subtilis 168 [1], first compound 0.0625 µg/mL, partner 0.15 µg/mL | 0.0585
B. subtilis 168 [1], first compound 0.0625 µg/mL, partner 0.3 µg/mL | 0.0527
B. subtilis 168 [1], first compound 0.125 µg/mL, partner 0.075 µg/mL | 0.0627
B. subtilis 168 [1], first compound 0.125 µg/mL, partner 0.15 µg/mL | 0.0636
B. subtilis 168 [1], first compound 0.125 µg/mL, partner 0.3 µg/mL | 0.0489
B. subtilis 168 [1], first compound 0.25 µg/mL, partner 0.075 µg/mL | 0.0575
B. subtilis 168 [1], first compound 0.25 µg/mL, partner 0.15 µg/mL | 0.0677
B. subtilis 168 [1], first compound 0.25 µg/mL, partner 0.3 µg/mL | 0.0596
S. aureus Newman [4], first compound 0.039 µg/mL, partner 0.0156 µg/mL | 0.689
S. aureus Newman [4], first compound 0.039 µg/mL, partner 0.0312 µg/mL | 0.662
S. aureus Newman [4], first compound 0.039 µg/mL, partner 0.0625 µg/mL | 0.629
S. aureus Newman [4], first compound 0.312 µg/mL, partner 0.0156 µg/mL | 0.317
S. aureus Newman [4], first compound 0.312 µg/mL, partner 0.0312 µg/mL | 0.224
S. aureus Newman [4], first compound 0.312 µg/mL, partner 0.0625 µg/mL | 0.181

Conditions | fitness
B. subtilis 168 [1], first compound 0.5 µg/mL, partner 0.002 µg/mL | 0.272
B. subtilis 168 [1], first compound 0.5 µg/mL, partner 0.008 µg/mL | 0.249
B. subtilis 168 [1], first compound 1 µg/mL, partner 0.002 µg/mL | 0.158
B. subtilis 168 [1], first compound 1 µg/mL, partner 0.004 µg/mL | 0.118
B. subtilis 168 [1], first compound 1 µg/mL, partner 0.008 µg/mL | 0.133
B. subtilis 168 [1], first compound 2 µg/mL, partner 0.002 µg/mL | 0.115
B. subtilis 168 [1], first compound 2 µg/mL, partner 0.004 µg/mL | 0.114
B. subtilis 168 [1], first compound 2 µg/mL, partner 0.008 µg/mL | 0.113
S. aureus DSM 20231 [3], first compound 0.039 µg/mL, partner 0.0156 µg/mL | 0.696
S. aureus DSM 20231 [3], first compound 0.039 µg/mL, partner 0.0312 µg/mL | 0.624
S. aureus DSM 20231 [3], first compound 0.039 µg/mL, partner 0.0625 µg/mL | 0.632
S. aureus DSM 20231 [3], first compound 0.078 µg/mL, partner 0.0156 µg/mL | 0.681
S. aureus DSM 20231 [3], first compound 0.078 µg/mL, partner 0.0312 µg/mL | 0.655
S. aureus DSM 20231 [3], first compound 0.078 µg/mL, partner 0.0625 µg/mL | 0.639
S. aureus DSM 20231 [3], first compound 0.156 µg/mL, partner 0.0156 µg/mL | 0.599
S. aureus DSM 20231 [3], first compound 0.156 µg/mL, partner 0.0312 µg/mL | 0.623
S. aureus DSM 20231 [3], first compound 0.156 µg/mL, partner 0.0625 µg/mL | 0.655
S. aureus DSM 20231 [3], first compound 0.312 µg/mL, partner 0.0156 µg/mL | 0.593
S. aureus DSM 20231 [3], first compound 0.312 µg/mL, partner 0.0312 µg/mL | 0.594
S. aureus DSM 20231 [3], first compound 0.312 µg/mL, partner 0.0625 µg/mL | 0.478
S. aureus Newman [4], first compound 0.078 µg/mL, partner 0.0156 µg/mL | 0.745
S. aureus Newman [4], first compound 0.078 µg/mL, partner 0.0312 µg/mL | 0.627
S. aureus Newman [4], first compound 0.078 µg/mL, partner 0.0625 µg/mL | 0.531
S. aureus Newman [4], first compound 0.156 µg/mL, partner 0.0156 µg/mL | 0.6
S. aureus Newman [4], first compound 0.156 µg/mL, partner 0.0312 µg/mL | 0.555
S. aureus Newman [4], first compound 0.156 µg/mL, partner 0.0625 µg/mL | 0.38
S. aureus Newman [4], first compound 0.625 µg/mL, partner 0.0156 µg/mL | 0.0697
S. aureus Newman [4], first compound 0.625 µg/mL, partner 0.0312 µg/mL | 0.0379
S. aureus Newman [4], first compound 0.625 µg/mL, partner 0.0625 µg/mL | 0.0206
S. aureus Newman [4], first compound 1.25 µg/mL, partner 0.0156 µg/mL | 0.0601
S. aureus Newman [4], first compound 1.25 µg/mL, partner 0.0312 µg/mL | 0.0503
S. aureus Newman [4], first compound 1.25 µg/mL, partner 0.0625 µg/mL | 0.0594
S. aureus Newman [4], first compound 2.5 µg/mL, partner 0.0156 µg/mL | 0.0599
S. aureus Newman [4], first compound 2.5 µg/mL, partner 0.0312 µg/mL | 0.0551
S. aureus Newman [4], first compound 2.5 µg/mL, partner 0.0625 µg/mL | 0.0574
S. pneumoniae D39V [2], first compound 0.0018 µg/mL, partner 0.005 µg/mL | 0.999
S. pneumoniae D39V [2], first compound 0.0018 µg/mL, partner 0.01 µg/mL | 0.983
S. pneumoniae D39V [2], first compound 0.0018 µg/mL, partner 0.02 µg/mL | 0.937
S. pneumoniae D39V [2], first compound 0.0018 µg/mL, partner 0.04 µg/mL | 0.345
S. pneumoniae D39V [2], first compound 0.0035 µg/mL, partner 0.005 µg/mL | ≥ 1
S. pneumoniae D39V [2], first compound 0.0035 µg/mL, partner 0.01 µg/mL | 0.979
S. pneumoniae D39V [2], first compound 0.0035 µg/mL, partner 0.02 µg/mL | 0.874
S. pneumoniae D39V [2], first compound 0.0035 µg/mL, partner 0.04 µg/mL | 0.189
S. pneumoniae D39V [2], first compound 0.007 µg/mL, partner 0.005 µg/mL | 0.979
S. pneumoniae D39V [2], first compound 0.007 µg/mL, partner 0.04 µg/mL | 0.0612

Conditions | Bliss interaction score
B. subtilis 168 [5] | 0.0466
S. aureus DSM 20231 [7] | 0.0453
S. aureus Newman [8] | 0.0747
S. pneumoniae D39V [6] | -0.116
